Experimental data published in US11331327B2, “Antibacterial use of halogenated salicylanilides” (UNION therapeutics A/S, priority 2014, dated 2022).
Converted amounts (≈) assume the structure as drawn.

Test system: S. aureus clinical isolates and S. aureus ATCC 29213
Test: MIC assay according to CLSI criteria, Example 2, S. aureus strains
Assay type: cell-based, Staphylococcus aureus
Settings: Staphylococcus aureus
How it was run: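 Wells received roughly 5×10^5 S. aureus cells taken in exponential growth, in cation-adjusted MH broth. Plates held aerobically at 37° C for 18 hours.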

## CN[C@H](CC(C)C)C(=O)N[C@H]1C(=O)N[C@@H](CC(N)=O)C(=O)N[C@H]2C(=O)N[C@H]3C(=O)N[C@H](C(=O)N[C@H](C(=O)O)c4cc(O)cc(O)c4-c4cc3ccc4O)[C@H](O)c3ccc(c(Cl)c3)Oc3cc2cc(c3O[C@@H]2O[C@H](CO)[C@@H](O)[C@H](O)[C@H]2O[C@H]2C[C@](C)(N)[C@H](O)[C@H](C)O2)Oc2ccc(cc2Cl)[C@H]1O [Vancomycin]
ATCC 29213 / MRSA, strain MRSA 15
  MIC: 2 µg/mL (≈ 1.38 µM)
ATCC 29213 / MRSA, strain MRSA 16
  MIC: 1 µg/mL (≈ 0.69 µM)
ATCC 29213 / MRSA, strain MRSA 17
  MIC: 2 µg/mL (≈ 1.38 µM)
ATCC 29213 / MRSA, strain MRSA 18
  MIC: 1 µg/mL (≈ 0.69 µM)
ATCC 29213 / MRSA, strain MRSA 19
  MIC: 1 µg/mL (≈ 0.69 µM)
ATCC 29213 / MRSA, strain MRSA 20
  MIC: 1 µg/mL (≈ 0.69 µM)
ATCC 29213 / MRSA, strain MRSA 21
  MIC: 1 µg/mL (≈ 0.69 µM)
ATCC 29213 / MRSA, strain MRSA 22
  MIC: 0.5 µg/mL (≈ 0.345 µM)
ATCC 29213 / MRSA, strain MRSA 23
  MIC: 1 µg/mL (≈ 0.69 µM)
ATCC 29213 / MRSA, strain MRSA 24
  MIC: 2 µg/mL (≈ 1.38 µM)
ATCC 29213 / MRSA, strain MRSA 25
  MIC: 1 µg/mL (≈ 0.69 µM)
ATCC 29213 / MRSA, strain MRSA 26
  MIC: 1 µg/mL (≈ 0.69 µM)
ATCC 29213 / MRSA, strain MRSA 27
  MIC: 1 µg/mL (≈ 0.69 µM)
ATCC 29213 / MRSA, strain MRSA 27b
  MIC: 1 µg/mL (≈ 0.69 µM)
ATCC 29213 / MRSA, strain MRSA 28
  MIC: 1 µg/mL (≈ 0.69 µM)
ATCC 29213 / MRSA, strain MRSA 29
  MIC: 1 µg/mL (≈ 0.69 µM)
ATCC 29213 / MRSA, strain MRSA 30
  MIC: 1 µg/mL (≈ 0.69 µM)
ATCC 29213 / MRSA, strain MRSA 31
  MIC: 1 µg/mL (≈ 0.69 µM)
ATCC 29213 / MRSA, strain MRSA 32
  MIC: 1 µg/mL (≈ 0.69 µM)
ATCC 29213 / MRSA, strain MRSA 33
  MIC: 1 µg/mL (≈ 0.69 µM)
ATCC 29213 / MRSA, strain MRSA 34
  MIC: 1 µg/mL (≈ 0.69 µM)
ATCC 29213 / MRSA, strain MRSA 35
  MIC: 1 µg/mL (≈ 0.69 µM)
ATCC 29213 / MRSA, strain MRSA 36
  MIC: 1 µg/mL (≈ 0.69 µM)
ATCC 29213 / MRSA, strain MRSA 37
  MIC: 1 µg/mL (≈ 0.69 µM)
ATCC 29213 / MRSA, strain MRSA 38
  MIC: 1 µg/mL (≈ 0.69 µM)
ATCC 29213 / MRSA, strain MRSA 39
  MIC: 1 µg/mL (≈ 0.69 µM)
ATCC 29213 / MRSA, strain MRSA 40
  MIC: 1 µg/mL (≈ 0.69 µM)
ATCC 29213 / MRSA, strain MRSA 41
  MIC: 1 µg/mL (≈ 0.69 µM)
ATCC 29213 / MRSA, strain MRSA 42
  MIC: 1 µg/mL (≈ 0.69 µM)
ATCC 29213 / MRSA, strain MRSA 43
  MIC: 1 µg/mL (≈ 0.69 µM)
ATCC 29213 / MRSA, strain MRSA 44
  MIC: 1 µg/mL (≈ 0.69 µM)
ATCC 29213 / MRSA, strain MRSA 45
  MIC: 1 µg/mL (≈ 0.69 µM)
ATCC 29213 / MRSA, strain MRSA 46
  MIC: 1 µg/mL (≈ 0.69 µM)
ATCC 29213 / MRSA, strain MRSA 47
  MIC: 0.5 µg/mL (≈ 0.345 µM)
ATCC 29213 / MRSA, strain MRSA 48
  MIC: 0.5 µg/mL (≈ 0.345 µM)
ATCC 29213 / MRSA, strain MRSA 49
  MIC: 2 µg/mL (≈ 1.38 µM)
ATCC 29213 / MRSA, strain MRSA 50
  MIC: 1 µg/mL (≈ 0.69 µM)
ATCC 29213 / MRSA, strain MRSA 51
  MIC: 1 µg/mL (≈ 0.69 µM)
ATCC 29213 / MRSA, strain MRSA 52
  MIC: 1 µg/mL (≈ 0.69 µM)
ATCC 29213 / MRSA, strain MRSA 53
  MIC: 1 µg/mL (≈ 0.69 µM)
ATCC 29213 / MRSA, strain MRSA 54
  MIC: 2 µg/mL (≈ 1.38 µM)
ATCC 29213 / MRSA, strain MRSA 55
  MIC: 0.5 µg/mL (≈ 0.345 µM)
ATCC 29213 / MRSA, strain MRSA 56
  MIC: 1 µg/mL (≈ 0.69 µM)
ATCC 29213 / MRSA, strain MRSA 57
  MIC: 1 µg/mL (≈ 0.69 µM)
ATCC 29213 / MRSA, strain MRSA 58
  MIC: 1 µg/mL (≈ 0.69 µM)
ATCC 29213 / MRSA, strain MRSA 59
  MIC: 1 µg/mL (≈ 0.69 µM)
ATCC 29213 / MRSA, strain MRSA 60
  MIC: 0.5 µg/mL (≈ 0.345 µM)
ATCC 29213 / MRSA, strain MRSA 61
  MIC: 2 µg/mL (≈ 1.38 µM)
ATCC 29213 / MRSA, strain MRSA 62
  MIC: 2 µg/mL (≈ 1.38 µM)
ATCC 29213 / MRSA, strain MRSA 63
  MIC: 1 µg/mL (≈ 0.69 µM)
ATCC 29213 / MRSA, strain MRSA 64
  MIC: 1 µg/mL (≈ 0.69 µM)
ATCC 29213 / MRSA, strain MRSA 65
  MIC: 1 µg/mL (≈ 0.69 µM)
ATCC 29213 / MRSA, strain MRSA 66
  MIC: 1 µg/mL (≈ 0.69 µM)
ATCC 29213 / MRSA, strain MRSA 67
  MIC: 1 µg/mL (≈ 0.69 µM)
ATCC 29213 / MRSA, strain MRSA 68
  MIC: 1 µg/mL (≈ 0.69 µM)
ATCC 29213 / MRSA, strain MRSA 69
  MIC: 1 µg/mL (≈ 0.69 µM)
ATCC 29213 / MRSA, strain MRSA 70
  MIC: 1 µg/mL (≈ 0.69 µM)
ATCC 29213 / MRSA, strain MRSA 71
  MIC: 1 µg/mL (≈ 0.69 µM)
ATCC 29213 / MRSA, strain MRSA 72
  MIC: 1 µg/mL (≈ 0.69 µM)
ATCC 29213 / MRSA, strain MRSA 73
  MIC: 1 µg/mL (≈ 0.69 µM)
ATCC 29213 / MRSA, strain MRSA 74
  MIC: 2 µg/mL (≈ 1.38 µM)
ATCC 29213 / MRSA, strain MRSA 75
  MIC: 1 µg/mL (≈ 0.69 µM)
ATCC 29213 / MRSA, strain MRSA 76
  MIC: 1 µg/mL (≈ 0.69 µM)
ATCC 29213 / MRSA, strain MRSA 77
  MIC: 2 µg/mL (≈ 1.38 µM)
ATCC 29213 / MRSA, strain MRSA 78
  MIC: 1 µg/mL (≈ 0.69 µM)
ATCC 29213 / MRSA, strain MRSA 79
  MIC: 1 µg/mL (≈ 0.69 µM)
ATCC 29213 / MRSA, strain MRSA 80
  MIC: 1 µg/mL (≈ 0.69 µM)
ATCC 29213 / MRSA, strain MRSA 81
  MIC: 1 µg/mL (≈ 0.69 µM)
ATCC 29213 / MRSA, strain MRSA 82
  MIC: 2 µg/mL (≈ 1.38 µM)
ATCC 29213 / MRSA, strain MRSA 83
  MIC: 1 µg/mL (≈ 0.69 µM)
ATCC 29213 / MRSA, strain MRSA 84
  MIC: 2 µg/mL (≈ 1.38 µM)
ATCC 29213 / MRSA, strain MRSA 85
  MIC: 1 µg/mL (≈ 0.69 µM)
ATCC 29213 / MRSA, strain MRSA 86
  MIC: 2 µg/mL (≈ 1.38 µM)
ATCC 29213 / MRSA, strain MRSA 87
  MIC: 1 µg/mL (≈ 0.69 µM)
ATCC 29213 / MRSA, strain MRSA 88
  MIC: 1 µg/mL (≈ 0.69 µM)
ATCC 29213 / MRSA, strain MRSA 89
  MIC: 1 µg/mL (≈ 0.69 µM)
ATCC 29213 / MRSA, strain MRSA 90
  MIC: 1 µg/mL (≈ 0.69 µM)
ATCC 29213 / MRSA, strain MRSA 91
  MIC: 1 µg/mL (≈ 0.69 µM)
ATCC 29213 / MRSA, strain MRSA 92
  MIC: 1 µg/mL (≈ 0.69 µM)
ATCC 29213 / MRSA, strain MRSA 93
  MIC: 2 µg/mL (≈ 1.38 µM)
ATCC 29213 / MRSA, strain MRSA 94
  MIC: 2 µg/mL (≈ 1.38 µM)
ATCC 29213 / MRSA, strain MRSA 95
  MIC: 2 µg/mL (≈ 1.38 µM)
ATCC 29213 / MRSA, strain MRSA 96
  MIC: 1 µg/mL (≈ 0.69 µM)
ATCC 29213 / MRSA, strain MRSA 97
  MIC: 1 µg/mL (≈ 0.69 µM)
ATCC 29213 / MRSA, strain MRSA 98
  MIC: 1 µg/mL (≈ 0.69 µM)
ATCC 29213 / MRSA, strain MRSA 99
  MIC: 1 µg/mL (≈ 0.69 µM)
ATCC 29213 / MRSA, strain MRSA 100
  MIC: 1 µg/mL (≈ 0.69 µM)
ATCC 29213 / MRSA, strain MRSA 101
  MIC: 1 µg/mL (≈ 0.69 µM)
ATCC 29213 / MRSA, strain MRSA 102
  MIC: 2 µg/mL (≈ 1.38 µM)
ATCC 29213 / MRSA, strain MRSA 103
  MIC: 1 µg/mL (≈ 0.69 µM)
ATCC 29213 / MRSA, strain MRSA 104
  MIC: 1 µg/mL (≈ 0.69 µM)
ATCC 29213 / MRSA, strain MRSA 105
  MIC: 1 µg/mL (≈ 0.69 µM)
ATCC 29213 / MRSA, strain MRSA 106
  MIC: 1 µg/mL (≈ 0.69 µM)
ATCC 29213 / MRSA, strain MRSA 107
  MIC: 2 µg/mL (≈ 1.38 µM)
ATCC 29213 / MRSA, strain MRSA 108
  MIC: 1 µg/mL (≈ 0.69 µM)
ATCC 29213 / MRSA, strain MRSA 109
  MIC: 1 µg/mL (≈ 0.69 µM)
ATCC 29213 / MRSA, strain MRSA 110
  MIC: 1 µg/mL (≈ 0.69 µM)
ATCC 29213 / MRSA, strain MRSA 111
  MIC: 1 µg/mL (≈ 0.69 µM)
ATCC 29213 / MRSA, strain MRSA 112
  MIC: 1 µg/mL (≈ 0.69 µM)
ATCC 29213 / MRSA, strain MRSA 113
  MIC: 1 µg/mL (≈ 0.69 µM)
ATCC 29213 / MSSA, strain MSSA 01
  MIC: 1 µg/mL (≈ 0.69 µM)
ATCC 29213 / MSSA, strain MSSA 02
  MIC: 1 µg/mL (≈ 0.69 µM)
ATCC 29213 / NEWMAN, strain Newman
  MIC: 2 µg/mL (≈ 1.38 µM)
